Values of other authors, collected in article PMC2677997 (Bioorganic & medicinal chemistry, 2009).

Tested on: SNARE cleavage in neuronal cells
Settings: cited from earlier work

**Q.** Which “activity in a cellular assay” value does the source give for O=C(/C=C/c1ccc(Cl)cc1Cl)NO [Compound 2, 2,4-dichlorocinnamic hydroxamic acid] here?
**A.** Its value is “inactive or cytotoxic”.
